The nature of data set [1]: Lipophilicity assay (LogD at pH 7.4), shake flask. The data set is classed as physicochemical. The note with it: pH 7.4, n-octanol/phosphate buffer.
Description: For this assay, an aqueous phosphate buffer solution at pH 7.4, saturated with n-octanol, was prepared, along with an n-octanol solution saturated with the aqueous phase at pH 7.4. Both solutions were mechanically stirred (using a magnetic stir bar and a Corning magnetic stirrer) at room temperature for 24 h, followed by a 24-hour resting period to ensure complete phase separation. Different phase ratios were prepared from these solutions in the following aqueous phase/n-octanol ratios: 1:1, 1:10, 1:100, and 1:300, to ensure that the substances were evaluated under non-saturating conditions. Stock solutions of each compound were prepared in DMSO at a concentration of 20 mM. From these stock solutions, standard solutions at a concentration of 30 µM in phosphate buffer pH 7.4 were obtained and used in each partition system, performed in triplicate. To reach equilibrium, the vials containing the samples were shaken for 90 min at room temperature using a roller shaker (Basic First Lab Orbital).
Data set [2] in a line: in vitro. In kind it is in vitro ADME. Particulars: for Papp at 5 h, 100 μM: PAMPA. On the procedure:
The parallel artificial membrane permeability assay (PAMPA) was performed using a 96-well pre-coated plate system (Corning® BioCoat™ PAMPA Plate System). […] A total of 200 µL of each solution was added to donor wells, while 300 µL of PBS was placed in the corresponding acceptor wells. The plates were assembled and incubated at 37 °C for 5 h. Aliquots of the initial donor solution (T0) were collected before incubation and stored at −20 °C. At the end of the incubation, samples from donor and acceptor compartments were transferred to tubes containing 30% (v/v) acetonitrile and processed under identical conditions. Compound concentrations in donor, acceptor, and T0 samples were quantified by high-performance liquid chromatography with ultraviolet detection (HPLC-UV) using validated chromatographic conditions. The apparent permeability coefficient (Papp) was calculated using the standard PAMPA equation, shown below. All experiments were performed in a trplicate.
The Papp equation is: Papp=−VD+VA/At VD+VAln 1−CA t/Ceq
On the technique in general: The PAMPA barrier holds no transporters, so it reflects passive diffusion.

Data set [3] is described as follows: Metabolic stability in rat liver microsomes. The data set is classed as in vitro ADME. The note with it: for half-life at 1 μM / microsomal CLint at 1 μM: Sprague-Dawley, pH 7.4, rat liver microsomes; for half-life at 1 μM: 0.25 mg/mL, read-out: T1/2 rat; for microsomal CLint at 1 μM: read-out: CL int. mic.; for parent compound remaining: rat microsomes. On the procedure:
(§1) The in vitro metabolic stability of the compound was evaluated in pooled human liver microsomes (HLM, 20 mg/mL), Sprague-Dawley rat liver microsomes (RLM, 20 mg/mL), and CD-1 mouse liver microsomes (MLM, 20 mg/mL), all purchased from GIBCO (Thermo Fisher Scientific). NADPH regenerating system (GentestTM) was prepared in potassium phosphate buffer (100 mM, pH 7.4). […] The reaction was stopped by adding acetonitrile, followed by vortex homogenization, sonication for 5 min, and centrifugation at 10,000 g for 5 min at 4 °C. The supernatants were transferred to glass vials for LC-MS/MS analysis. The half-life was estimated based on the area under the curve (AUC) through regression analysis of the concentration decay over time. This calculation was performed using the following formula: t1/2=LN2/Kel
(§2) Where LN is the neperian logarithm, and K is the slope of the regression of the LN of AUC as a function of time. Then, the microsomal intrinsic clearance (CLint, mic) was calculated using the following equation: CLint.mic=LN2/t1/2 x VI/PM
(§3) Where V is the incubation volume (µL), and PM is the microsomal protein concentration (mg). This intrinsic clearance can be extrapolated to the whole liver (CLint,hep) using the following equation: CLint.hep=CLint.mic x ML x LB
(§4) ML is the microsomal yield, and LB is the liver weight (g) per kilogram of body weight.
(§5) To ensure the linearity of the elimination phase and to avoid the influence of points outside the log-linear range, the points deviated from the expected first-order kinetic profile were excluded. The supernatants were analyzed by UPLC-Xevo-TQ-XS from Waters. Chromatographic separation was performed on an Acquity UPLC BEH C18 column (2.1 × 100 mm, 1.7 µm particle size), maintained at 40 °C. The mobile phases were (A) water with 0.1% formic acid and (B) acetonitrile with 0.1% formic acid. […] The total run time was 5 min.
For orientation: Liver microsomes are a subcellular fraction often used to study metabolism.

Data set [4] can be described thus: Kinetic solubility. The data set is classed as physicochemical. Particulars: 25 °C. On the procedure: These conditions simulate stomach acidity, plasma neutrality, and intestinal basicity.
For the chemical stability experiment, the compounds were evaluated under the same conditions with an additional incubation at 37 °C for a period of 24 h. The analysis was performed using an analytical method developed and validated by high-performance liquid chromatography with UV detection (HPLC-UV). Compounds were quantified in different pH media by comparing the areas where the substances were completely soluble with those in the reaction media. The experiments were performed in a triplicate.
These conditions simulate stomach acidity, plasma neutrality, and intestinal basicity. […] For the chemical stability experiment, the compounds were evaluated under the same conditions with an additional incubation at 37°C for a period of 24 hours. The analysis was performed using an analytical method developed and validated by high-performance liquid chromatography with UV detection (HPLC-UV). Compounds were quantified in the different pH media by comparing the areas where the substances were completely soluble with those in the reaction media. The experiments were performed in triplicate.

Data set [5] in a line: Oral bioavailability (plasma concentration). The note with it: mice; for concentration at 1 h: female, BALB/c, mouse, plasma, 50 mg/kg, oral administration, after 1 h; for plasma concentration (in words): single oral dose 50 mg/kg, 5-60 min. The data set is classed as in vivo, BALB/c mice. On the procedure:
For the in vivo assays, female BALB/c mice, aged between 8 and 9 weeks and weighing approximately 25 g, were used. […] After preparation, three animals received a single oral dose of 50 mg/kg for each compound via gavage. The control group received only the vehicle. Blood samples were collected at 5-, 15-, 30-, 45-, and 60-minute post-administration using submandibular vein puncture, retro-orbital collection, and intracardiac (terminal) puncture. The mice were maintained under inhalation anesthesia with 3% isoflurane throughout the sampling period to ensure animal welfare. Blood samples were transferred to heparin-containing tubes and processed by centrifugation (4,000 rpm, 10 min, 4 °C) to separate the plasma. The obtained plasma was transferred to clean vials and stored at -80 °C until analysis. Compound quantification was performed using ultra-performance liquid chromatography coupled with tandem mass spectrometry (UPLC-MS/MS).

Data set [6] can be described thus: Metabolic stability in human liver microsomes. In kind it is in vitro ADME. The note with it: for half-life at 1 μM / microsomal CLint at 1 μM: pooled liver microsomes, pH 7.4, human liver microsomes; for half-life at 1 μM: 0.25 mg/mL, read-out: T1/2 human; for microsomal CLint at 1 μM: read-out: CL int. mic.; for parent compound remaining: human microsomes. On the procedure: as §1, §2, §3, §4, §5

A short description of data set [7]: Stability in HBSS buffer. The data set is classed as physicochemical. Particulars: 37°C, 2 hours. On the procedure:
The compounds were evaluated for chemical stability in Hanks’ Balanced Salt Solution (HBSS) over a 2-hour incubation period at 37°C. Stock solutions prepared in DMSO were diluted in HBSS to the desired test concentration. Samples were collected at time zero and after 2 hours of incubation. The remaining concentration of each compound was quantified by HPLC-UV, with stability assessed by comparing the percentage of compound remaining after 2 hours relative to the initial concentration.

Where [8] appears, read: pH 5.5, PAMPA pH 5,5 Papp - lower.
Setting [9] is: pH 5.5, PAMPA pH 5,5 Papp - upper.
[10] abbreviates: pH 7.4, PAMPA pH 7,4 Papp - lower.
The mark [11] stands for this setting: pH 7.4, PAMPA pH 7,4 Papp - upper.
The mark [12] stands for this setting: across pH conditions (1.7, 7.4, 8.9).

Data on 2 molecules can be found in PMC12698583, “Efficacy of sulfonamides targeting malic enzyme in an animal model of Chagas disease” (Frontiers in Pharmacology, 2025).

On to `CC(C)Oc1ccc(NS(=O)(=O)c2cccc(NC(=O)c3cnccn3)c2)cc1` [AC-M110, N-(3-(N-(4-isopropoxyphenyl)sulfamoyl)phenyl)pyrazine-2-carboxamide], for which the logD (commonly lipophilicity at a set pH, counting ionised and neutral species) at 90 min in data set [1] was 3. Besides, the Papp (in general, the rate of passage across a membrane or cell layer, normalised by area and donor concentration) at 5 h, 100 μM stood at 3.4 ×10⁻⁶ cm/s in data set [2] (setting [8]), 4.4 ×10⁻⁶ cm/s in data set [2] (setting [9]), 9.1 ×10⁻⁶ cm/s in data set [2] (setting [10]) and 9.6 ×10⁻⁶ cm/s in data set [2] (setting [11]). In data set [2] (pH 5.5), the “PAMPA Papp at pH 5.5” value is recorded as 3.4–4.5 × 10^−6. The half-life at 1 μM was determined as 9 min in data set [3] and 6 min in data set [6]. Besides, the results for the microsomal CLint at 1 μM in data set [3] and in data set [6] were 61 µL/min/mg and 97 µL/min/mg, respectively. In addition, the Kinetic solubility in data set [4] (acidic pH (1.7), 5 µM) is 65%; in data set [4] (setting [12]), “above 60%”; in data set [4] (basic pH (8.9), 5 µM), 74%; in data set [4] (neutral pH (7.4), 5 µM) it was 65%. Further, the concentration at 1 h in data set [5] is at most 1000 nM. Besides, the “plasma concentration (in words)” value in data set [5] is “between EC50 and EC90”. Moreover, in data set [7], the “chemical stability in HBSS buffer (in words)” value is “remained chemically stable”.
`COc1ccc(NS(=O)(=O)c2cccc(NC(=O)c3cnccn3)c2)cc1` [AC-R008, N-(3-(N-(4-methoxyphenyl)sulfamoyl)phenyl)pyrazine-2-carboxamide] gave a logD at 90 min in data set [1] of 2.5. Moreover, the Papp at 5 h, 100 μM is 40.5 ×10⁻⁶ cm/s in data set [2] (setting [8]); 56 ×10⁻⁶ cm/s in data set [2] (setting [9]); 92 ×10⁻⁶ cm/s in data set [2] (pH 7.4, PAMPA Papp at pH 7.4); 92 ×10⁻⁶ cm/s in data set [2] (setting [10]); 86 ×10⁻⁶ cm/s in data set [2] (setting [11]). In addition, the figures for the half-life at 1 μM in data set [3] and in data set [6] were 10 min and 7 min, respectively. In addition, the microsomal CLint at 1 μM in data set [3] amounted to 55 µL/min/mg; in data set [6], 78 µL/min/mg. Besides, the parent compound remaining in data set [3] (5 min) is 55%; in data set [3] (60 min), “about 1%”; in data set [6] (5 min), 47%; in data set [6] (60 min), “about 1%”. Besides, the Kinetic solubility is 75% in data set [4] (acidic pH (1.7), 5 µM); “above 60%” in data set [4] (setting [12]); 75% in data set [4] (basic pH (8.9), 5 µM); 75% in data set [4] (neutral pH (7.4), 5 µM). In data set [5], this molecule gave a concentration at 1 h of at most 1000 nM. Besides, the “plasma concentration (in words)” value in data set [5] is “between EC50 and EC90”. For the same molecule, the “chemical stability in HBSS buffer (in words)” value in data set [7] is recorded as “remained chemically stable”.
